In ChEMBL document CHEMBL1201862, “PubChem BioAssay data set” (2004):
Active and inactive are the calls of the source. For most assays here, no stated cut-off is given here; in the data, actives have a measured EC50 and inactives only a lower limit.

Assays:
[1] = molecular target: Luciferin 4-monooxygenase (Photinus pyralis, UniProt P08659); experiment: inhibition of purified Photinus pyralis luciferase – biochemical, luminescence, dose response (AID 1891)
BJ [2] = experiment: cells; assay type: functional, cell-based; details: Homo sapiens
BJ [3] = experiment: BJ-TERT-LT-ST fibroblast viability loss – cell-based, RAS-independent, luminescence, dose response (AID 1935); assay type: functional; details: Homo sapiens;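 further: BJ fibroblasts immortalized with TERT plus LT and ST oncogenes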
[4] = Luminescence Cell-Based Dose Confirmation HTS to Identify Inhibitors of Platelet Dense Granule Release. [Related pubchem assays: 1663 (Primary HTS), 1678 (Summary of Project)]; assay type: functional
BJ [5] = experiment: BJ-TERT fibroblast viability loss – cell-based, RAS-independent, luminescence, dose response (AID 1933); assay type: functional; details: Homo sapiens
[6] = DRD fibroblast viability loss – cell-based, non-viral oncogenic, luminescence, dose response (AID 1934); assay type: functional; details: Homo sapiens
Paired box protein Pax-8 = Paired box protein Pax-8 (Homo sapiens, UniProt Q06710); experiment: PAX8 transcriptional activity inhibition in RMG-I – RMG-I cells, luciferase, cherry-pick, dose response (AID 687027); assay type: functional, cell-based;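 further: luciferase reporter driven by Pax8 target thyroperoxidase promoter measured by SteadyGlo luminescence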
Paired box protein Pax-8, sequence (Q06710 whole entry): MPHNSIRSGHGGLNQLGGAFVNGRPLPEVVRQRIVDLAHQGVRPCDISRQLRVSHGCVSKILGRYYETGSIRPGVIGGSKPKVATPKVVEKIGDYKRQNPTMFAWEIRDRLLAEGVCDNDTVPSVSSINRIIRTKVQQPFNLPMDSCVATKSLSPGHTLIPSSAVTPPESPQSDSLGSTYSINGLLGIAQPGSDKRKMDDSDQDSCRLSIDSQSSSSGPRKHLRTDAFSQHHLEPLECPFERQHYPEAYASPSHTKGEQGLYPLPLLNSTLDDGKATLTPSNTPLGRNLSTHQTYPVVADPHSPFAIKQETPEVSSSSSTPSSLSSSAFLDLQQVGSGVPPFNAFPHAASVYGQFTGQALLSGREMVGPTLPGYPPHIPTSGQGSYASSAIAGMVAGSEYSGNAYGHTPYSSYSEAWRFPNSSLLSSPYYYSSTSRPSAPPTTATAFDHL

[7] = alpha-synuclein stem-loop luciferase translation blockers – H4 neuroglioma cells, luminescence, confirmation (AID 1988); assay type: functional, cell-based
[8] = Luminescence Cell-Based Dose Response HTS to Identify Inhibitors of 5'UTR Stem-Loop Driven Prion Protein mRNA Translation in H4 Neuroglioblastoma Cells. [Related pubchem assays: 1827 (Project Summary), 1813 (Primary HTS)]; assay type: functional
[9] = luciferase reporter signal suppression in cells – H4 neuroglioma cells, luminescence, dose response (AID 1990); assay type: functional, cell-based
[10] = Trypanosoma cruzi growth suppression in host cells – NIH3T3 host cells, beta-gal luminescence, confirmation (AID 2044); assay type: functional, cell-based;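 further: intracellular parasites grown in NIH/3T3 mouse fibroblasts as host cells; luminescent beta-galactosidase reporter signal from transgenic T. cruzi replicating inside host cells; inhibitors lower the luminescence signal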
[11] = NIH3T3 cell viability loss – ATP luminescence, mouse fibroblasts, counter-screen, dose response (AID 2010); assay type: functional, cell-based;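 further: cells exposed to compound for about 90 hours before reading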
[12] = NIH-3T3 fibroblast cytotoxicity, dose response, cytotoxicity control, cell-based, fluorescence, Alamar Blue, secondary assay (AID 2327); assay type: functional;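 further: NIH-3T3 mouse fibroblasts cultured with fluconazole at 8 µg/mL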
[13] = molecular target: T1, Mannose-6-phosphate isomerase (Homo sapiens, UniProt P34949); experiment: MPI inhibition at elevated mannose 6-phosphate – biochemical, fluorescence intensity, high mannose 6-phosphate, primary screen (AID 1220)
T1 sequence (P34949 whole entry): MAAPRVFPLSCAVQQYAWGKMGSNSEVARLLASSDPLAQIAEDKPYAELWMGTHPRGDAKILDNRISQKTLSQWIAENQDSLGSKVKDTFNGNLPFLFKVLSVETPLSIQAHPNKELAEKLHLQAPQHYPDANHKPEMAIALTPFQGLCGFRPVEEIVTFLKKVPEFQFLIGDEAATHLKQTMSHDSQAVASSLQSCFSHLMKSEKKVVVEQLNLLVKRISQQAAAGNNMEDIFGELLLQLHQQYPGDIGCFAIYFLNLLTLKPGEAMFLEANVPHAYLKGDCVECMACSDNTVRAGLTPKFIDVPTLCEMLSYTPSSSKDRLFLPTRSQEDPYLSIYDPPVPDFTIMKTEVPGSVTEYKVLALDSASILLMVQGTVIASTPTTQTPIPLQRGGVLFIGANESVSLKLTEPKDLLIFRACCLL

H9c2 = experiment: cells; assay type: functional, cell-based; details: Rattus norvegicus, H9c2, Myocardium;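 further: confirmatory concentration-response retest of ultra-high-throughput screening hits for modulation of myocardial damage; cell death induced by hydrogen peroxide oxidative stress; compound pretreatment for 60 min then peroxide exposure for 2 h; potency is for protecting the cells against peroxide damage rather than for killing them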
[14] = fluconazole-exposed Candida albicans growth modulators – fluorescence, retest, confirmation (AID 2467); assay type: functional, cell-based
[15] = microbe, parasite or virus in culture; assay type: functional; details: Mycobacterium tuberculosis
Fatty acid synthase [16] = molecular target: T2, Fatty acid synthase (Homo sapiens, UniProt P49327); experiment: inhibition of human FAS-TE enzyme activity – biochemical, endpoint fluorescence intensity, uHTS hits, dose response (AID 624327); assay type: functional;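 further: fluorescence from hydrolysis of an O-methyl fluorescein acyl ester substrate by the enzyme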
T2 sequence (P49327 whole entry): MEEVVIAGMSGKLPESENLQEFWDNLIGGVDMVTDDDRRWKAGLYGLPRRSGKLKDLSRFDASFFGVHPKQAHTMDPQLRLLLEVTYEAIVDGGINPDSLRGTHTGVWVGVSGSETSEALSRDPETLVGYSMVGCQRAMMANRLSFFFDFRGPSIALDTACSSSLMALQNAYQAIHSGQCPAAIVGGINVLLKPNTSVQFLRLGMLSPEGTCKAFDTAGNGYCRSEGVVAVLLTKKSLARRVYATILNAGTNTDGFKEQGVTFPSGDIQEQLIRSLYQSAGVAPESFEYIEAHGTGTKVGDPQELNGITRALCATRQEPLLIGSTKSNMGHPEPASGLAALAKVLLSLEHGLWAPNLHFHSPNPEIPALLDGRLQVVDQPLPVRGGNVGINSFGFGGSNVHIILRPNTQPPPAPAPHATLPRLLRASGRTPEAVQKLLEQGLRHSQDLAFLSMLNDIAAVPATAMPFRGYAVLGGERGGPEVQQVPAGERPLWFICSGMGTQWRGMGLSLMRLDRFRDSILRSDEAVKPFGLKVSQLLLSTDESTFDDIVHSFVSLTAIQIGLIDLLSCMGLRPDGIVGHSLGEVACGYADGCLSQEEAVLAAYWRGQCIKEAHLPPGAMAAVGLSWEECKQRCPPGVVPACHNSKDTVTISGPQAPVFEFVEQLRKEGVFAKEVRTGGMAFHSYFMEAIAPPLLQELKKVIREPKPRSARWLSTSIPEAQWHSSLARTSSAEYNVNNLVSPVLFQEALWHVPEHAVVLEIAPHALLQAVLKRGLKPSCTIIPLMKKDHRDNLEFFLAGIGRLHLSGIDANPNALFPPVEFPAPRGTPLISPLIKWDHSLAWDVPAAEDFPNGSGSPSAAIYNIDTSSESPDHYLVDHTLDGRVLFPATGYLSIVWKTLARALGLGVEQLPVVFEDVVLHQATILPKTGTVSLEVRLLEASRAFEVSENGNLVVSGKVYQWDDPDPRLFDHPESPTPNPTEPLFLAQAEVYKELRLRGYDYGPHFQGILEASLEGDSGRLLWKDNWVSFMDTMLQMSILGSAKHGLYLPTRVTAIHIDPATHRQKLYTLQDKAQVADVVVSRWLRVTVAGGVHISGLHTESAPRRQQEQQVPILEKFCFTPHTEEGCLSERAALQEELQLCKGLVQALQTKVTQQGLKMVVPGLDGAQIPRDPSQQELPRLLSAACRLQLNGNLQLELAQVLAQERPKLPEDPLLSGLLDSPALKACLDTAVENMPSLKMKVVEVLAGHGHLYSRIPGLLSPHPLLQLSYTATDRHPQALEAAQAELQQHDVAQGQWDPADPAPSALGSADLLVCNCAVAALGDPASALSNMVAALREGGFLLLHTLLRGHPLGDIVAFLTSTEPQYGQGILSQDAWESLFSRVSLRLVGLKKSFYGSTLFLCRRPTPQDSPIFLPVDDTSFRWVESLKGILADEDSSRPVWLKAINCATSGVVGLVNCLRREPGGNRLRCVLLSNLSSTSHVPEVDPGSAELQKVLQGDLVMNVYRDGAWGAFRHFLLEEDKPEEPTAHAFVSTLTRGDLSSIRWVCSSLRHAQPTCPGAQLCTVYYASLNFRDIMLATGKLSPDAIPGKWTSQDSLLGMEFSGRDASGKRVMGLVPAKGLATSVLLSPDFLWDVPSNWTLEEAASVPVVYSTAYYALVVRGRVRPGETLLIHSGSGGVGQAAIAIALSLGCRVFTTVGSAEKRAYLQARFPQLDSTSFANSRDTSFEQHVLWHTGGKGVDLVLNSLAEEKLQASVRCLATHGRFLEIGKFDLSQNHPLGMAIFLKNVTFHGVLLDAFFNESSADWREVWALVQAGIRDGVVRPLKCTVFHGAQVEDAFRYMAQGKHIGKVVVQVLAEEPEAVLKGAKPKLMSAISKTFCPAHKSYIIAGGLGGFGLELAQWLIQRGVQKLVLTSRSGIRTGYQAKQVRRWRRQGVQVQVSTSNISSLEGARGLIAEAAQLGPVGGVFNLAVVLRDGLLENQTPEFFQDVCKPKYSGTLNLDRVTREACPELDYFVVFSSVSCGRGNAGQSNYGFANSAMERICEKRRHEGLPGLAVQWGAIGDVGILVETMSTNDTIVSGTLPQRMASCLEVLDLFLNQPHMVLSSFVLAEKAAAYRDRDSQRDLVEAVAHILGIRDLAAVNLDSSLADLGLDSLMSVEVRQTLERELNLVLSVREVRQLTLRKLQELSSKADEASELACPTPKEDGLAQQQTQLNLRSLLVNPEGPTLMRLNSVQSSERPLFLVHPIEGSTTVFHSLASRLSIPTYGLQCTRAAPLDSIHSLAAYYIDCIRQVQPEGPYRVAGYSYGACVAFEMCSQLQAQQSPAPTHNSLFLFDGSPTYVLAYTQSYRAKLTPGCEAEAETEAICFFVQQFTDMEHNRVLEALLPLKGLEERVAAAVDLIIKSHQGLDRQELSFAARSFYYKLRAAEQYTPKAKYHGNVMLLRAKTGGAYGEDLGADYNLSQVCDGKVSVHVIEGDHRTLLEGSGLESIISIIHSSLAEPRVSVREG

Fatty acid synthase [17] = molecular target: T2, Fatty acid synthase; experiment: inhibition of human FAS-TE enzyme activity – biochemical, kinetic fluorescence intensity, dose response (AID 624326); assay type: functional;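 further: rate of fluorescence rise from hydrolysis of a fluorogenic O-methyl fluorescein ester substrate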
[18] = viability of uninfected HEp-2 cells – cell-based, HTS, cytotoxicity control for RSV inhibitor project, dose response (AID 2410); assay type: functional; details: human respiratory syncytial virus

Luciferin 4-monooxygenase, sequence (P08659 whole entry): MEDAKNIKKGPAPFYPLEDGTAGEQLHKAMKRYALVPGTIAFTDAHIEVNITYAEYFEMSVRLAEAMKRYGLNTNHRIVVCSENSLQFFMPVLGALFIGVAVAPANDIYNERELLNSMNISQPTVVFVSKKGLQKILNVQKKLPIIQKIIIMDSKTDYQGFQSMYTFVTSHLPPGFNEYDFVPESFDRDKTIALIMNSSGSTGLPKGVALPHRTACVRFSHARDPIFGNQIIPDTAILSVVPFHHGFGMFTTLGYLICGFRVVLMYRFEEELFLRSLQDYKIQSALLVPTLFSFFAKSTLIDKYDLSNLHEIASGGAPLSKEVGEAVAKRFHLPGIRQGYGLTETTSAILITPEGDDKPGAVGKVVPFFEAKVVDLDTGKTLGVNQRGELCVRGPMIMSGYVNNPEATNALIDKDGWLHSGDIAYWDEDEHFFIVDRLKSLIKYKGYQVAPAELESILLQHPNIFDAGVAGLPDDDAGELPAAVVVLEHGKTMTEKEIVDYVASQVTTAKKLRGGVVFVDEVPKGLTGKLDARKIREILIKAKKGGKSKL

Compound	EC50 [1]	EC50 [4]	EC50 [7]	EC50 [8]	EC50 [9]	other results
OC[C@H]1O[C@@H](n2cnc3c(NCCc4ccccc4)ncnc32)[C@H](O)[C@@H]1O	> 112 µM (not active)	0.893 µM (active)	–	–	–	EC50 (BJ [2]): 35.4 µM (active); EC50 (BJ [3]): > 150 µM (not active); EC50 (BJ [5]): 15.2 µM (inconclusive); EC50 [6]: 18.9 µM (active)
O=C(NCCN1C(=O)S/C(=C\c2ccc(OC(F)F)cc2)C1=O)c1cnccn1	–	–	> 120 µM (not active)	26.3 µM (active)	> 120 µM (not active)	AC50 (Paired box protein Pax-8): 15.5 µM (active)
CCOc1ccccc1CNC(=O)C1CCN(c2nnc(C)c3c(C)n(-c4ccc(C)cc4)nc23)CC1	–	–	9.02 µM (active)	12.6 µM (active)	8.11 µM (active)	EC50 [10]: 1.45 µM (active); EC50 [11]: 9.4 µM (active)
Cc1ccc(NCc2ccc(O)c3ncccc23)cc1C	–	–	–	–	–	EC50 [12]: > 160 µM (inconclusive); IC50 [13]: > 50 µM (not active); IC50 (H9c2): > 79 µM (inactive); EC50 [14]: > 38 µM (not active); CC50 [15]: 33.9 µM (active)
CS(=O)(=O)N1CCc2cc(-c3csc(NC(=O)Cc4ccccc4)n3)ccc21	–	–	> 120 µM (not active)	20.9 µM (active)	> 120 µM (not active)	EC50 [10]: 1.08 µM (active); IC50 (Fatty acid synthase [16]): 8.79 µM (active); IC50 (Fatty acid synthase [17]): 5.12 µM (active); EC50 [11]: > 60 µM (not active)
Cc1ccccc1C(=O)NC1CCN(C(=O)N2CCOCC2)CC1	> 112 µM (not active)	> 112 µM (not active)	–	–	–	–
COCCNc1nc(N)c([N+](=O)[O-])c(NC2CCCCC2)n1	–	–	77.7 µM (active)	> 120 µM (not active)	16.2 µM (active)	–
COc1ccc(-c2nc(C[S+]([O-])CC(=O)NC3CCCCC3C)c(C)o2)cc1 (centres undefined)	> 112 µM (not active)	> 112 µM (not active)	–	–	–	–
CC(C)c1ccc(NC(S)=NC2CCN(Cc3ccccc3)CC2)cc1	> 112 µM (not active)	> 112 µM (not active)	–	–	–	CC50 [18]: 20.6 µM (active)
CCOC(=O)N1CCN(Cc2cc(=O)oc3cc4c(cc23)CCC4)CC1	> 112 µM (not active)	> 112 µM (not active)	–	–	–	–
O=C(N/C(=C/C=C\c1ccccc1)C(=O)N1CCOCC1)c1ccc(Br)cc1	–	–	> 120 µM (not active)	> 120 µM (not active)	> 120 µM (not active)	IC50 (Fatty acid synthase [16]): 7.92 µM (active); IC50 (Fatty acid synthase [17]): 7.63 µM (active)
